Tests used:
Format in all cases: in vivo
Settings in all cases: 0 to 100 scale (0 no effect, 100 complete control)
[1] = tested on: galium (catchweed bedstraw, Galium aparine); assay: Test A postemergence, galium
Text: (§1) Test A Seeds of plant species selected from barnyardgrass (Echinochloa crus-galli), kochia (Kochia scoparia), ragweed (common ragweed, Ambrosia elatior), ryegrass, Italian (Lolium multiflorum), foxtail, giant (Setaria faberii), and pigweed (Amaranthus retroflexus), were planted into a blend of loam soil and sand and treated preemergence with a directed soil spray using test chemicals formulated in a non-phytotoxic solvent mixture which included a surfactant.
(§2) At the same time, plants selected from these weed species and also blackgrass (Alopecurus myosuroides), galium (catchweed bedstraw, Galium aparine), wheat (Triticum aestivum), and corn (Zea mays) were planted in pots containing the same blend of loam soil and sand and treated with postemergence applications of test chemicals formulated in the same manner. Plants ranged in height from 2 to 10 cm and were in the one- to two-leaf stage for the postemergence treatment. Treated plants and untreated controls were maintained in a greenhouse for approximately 10 days, after which time all treated plants were compared to untreated controls and visually evaluated for injury. Plant response ratings, summarized in Table A, are based on a 0 to 100 scale where 0 is no effect and 100 is complete control. A dash (-) response means no test result.

[2] = tested on: wheat (Triticum aestivum); assay: Test A postemergence, wheat
Text: as §1, §2

[3] = tested on: ragweed (common ragweed, Ambrosia elatior); assay: Test A preemergence, ragweed
Text: as §1, §2

[4] = tested on: ryegrass, Italian (Lolium multiflorum); assay: Test A preemergence, Italian ryegrass
Text: as §1, §2

[5] = tested on: ragweed (common ragweed, Ambrosia elatior); assay: Test A postemergence, ragweed
Text: as §1, §2

[6] = tested on: barnyardgrass (Echinochloa crus-galli); assay: Test A preemergence, barnyardgrass
Text: as §1, §2

[7] = tested on: foxtail, giant (Setaria faberii); assay: Test A postemergence, giant foxtail
Text: as §1, §2

[8] = tested on: pigweed (Amaranthus retroflexus); assay: Test A postemergence, pigweed
Text: as §1, §2

[9] = tested on: kochia (Kochia scoparia); assay: Test A preemergence, kochia
Text: as §1, §2

[10] = tested on: pigweed (Amaranthus retroflexus); assay: Test A preemergence, pigweed
Text: as §1, §2

[11] = tested on: ryegrass, Italian (Lolium multiflorum); assay: Test A postemergence, Italian ryegrass
Text: as §1, §2

[12] = tested on: blackgrass (Alopecurus myosuroides); assay: Test A postemergence, blackgrass
Text: as §1, §2

[13] = tested on: foxtail, giant (Setaria faberii); assay: Test A preemergence, giant foxtail
Text: as §1, §2

[14] = tested on: corn (Zea mays); assay: Test A postemergence, corn
Text: as §1, §2

[15] = tested on: kochia (Kochia scoparia); assay: Test A postemergence, kochia
Text: as §1, §2

[16] = tested on: barnyardgrass (Echinochloa crus-galli); assay: Test A postemergence, barnyardgrass
Text: as §1, §2

[17] = 125 g ai/ha, visual injury, approximately 10 days
[18] = 500 g ai/ha, visual injury, approximately 10 days

O=C1NCC(c2cccc(Cn3cccn3)c2)C1C(=O)Nc1ccccc1Cl (centres unmarked) [Compound 29]
20: Plant response rating, Foxtail, Giant [7, 18] | Plant response rating, Barnyardgrass [16, 18]
0: Plant response rating, Galium [1, 17] | Plant response rating, Galium [1, 18] | Plant response rating, Wheat [2, 17] | Plant response rating, Wheat [2, 18] | Plant response rating, Ragweed ([3]; 125 g ai/ha) | Plant response rating, Ragweed ([3]; 500 g ai/ha) | Plant response rating, Ryegrass, Italian ([4]; 125 g ai/ha) | Plant response rating, Ryegrass, Italian ([4]; 500 g ai/ha) | Plant response rating, Ragweed [5, 17] | Plant response rating, Ragweed [5, 18] | Plant response rating, Barnyardgrass ([6]; 125 g ai/ha) | Plant response rating, Foxtail, Giant [7, 17] | Plant response rating, Pigweed [8, 17] | Plant response rating, Pigweed [8, 18] | Plant response rating, Kochia ([9]; 125 g ai/ha) | Plant response rating, Kochia ([9]; 500 g ai/ha) | Plant response rating, Pigweed ([10]; 125 g ai/ha) | Plant response rating, Pigweed ([10]; 500 g ai/ha) | Plant response rating, Ryegrass, Italian [11, 17] | Plant response rating, Ryegrass, Italian [11, 18] | Plant response rating, Blackgrass [12, 17] | Plant response rating, Blackgrass [12, 18] | Plant response rating, Foxtail, Giant ([13]; 125 g ai/ha) | Plant response rating, Corn [14, 17] | Plant response rating, Corn [14, 18] | Plant response rating, Kochia [15, 17] | Plant response rating, Kochia [15, 18] | Plant response rating, Barnyardgrass [16, 17]
40: Plant response rating, Barnyardgrass ([6]; 500 g ai/ha) | Plant response rating, Foxtail, Giant ([13]; 500 g ai/ha)

O=C1NCC(c2cccc(Oc3ncc(Cl)cn3)c2)C1C(=O)Nc1cccc(F)c1F (centres unmarked) [Compound 56]
60: Plant response rating, Foxtail, Giant [7, 18]
70: Plant response rating, Barnyardgrass ([6]; 500 g ai/ha)
30: Plant response rating, Barnyardgrass ([6]; 125 g ai/ha) | Plant response rating, Barnyardgrass [16, 18]
0: Plant response rating, Galium [1, 17] | Plant response rating, Wheat [2, 17] | Plant response rating, Wheat [2, 18] | Plant response rating, Ragweed ([3]; 125 g ai/ha) | Plant response rating, Ragweed ([3]; 500 g ai/ha) | Plant response rating, Ryegrass, Italian ([4]; 125 g ai/ha) | Plant response rating, Ryegrass, Italian ([4]; 500 g ai/ha) | Plant response rating, Ragweed [5, 17] | Plant response rating, Ragweed [5, 18] | Plant response rating, Foxtail, Giant [7, 17] | Plant response rating, Pigweed [8, 17] | Plant response rating, Pigweed [8, 18] | Plant response rating, Kochia ([9]; 125 g ai/ha) | Plant response rating, Kochia ([9]; 500 g ai/ha) | Plant response rating, Pigweed ([10]; 125 g ai/ha) | Plant response rating, Pigweed ([10]; 500 g ai/ha) | Plant response rating, Ryegrass, Italian [11, 17] | Plant response rating, Ryegrass, Italian [11, 18] | Plant response rating, Blackgrass [12, 17] | Plant response rating, Blackgrass [12, 18] | Plant response rating, Foxtail, Giant ([13]; 125 g ai/ha) | Plant response rating, Foxtail, Giant ([13]; 500 g ai/ha) | Plant response rating, Corn [14, 17] | Plant response rating, Corn [14, 18] | Plant response rating, Kochia [15, 17] | Plant response rating, Kochia [15, 18] | Plant response rating, Barnyardgrass [16, 17]
20: Plant response rating, Galium [1, 18]

O=C1NCC(c2cccc(Oc3ncc(F)cc3F)c2)C1C(=O)Nc1cccc(F)c1F (single isomer, unassigned) [Compound 71]
70: Plant response rating, Barnyardgrass ([6]; 125 g ai/ha) | Plant response rating, Foxtail, Giant [7, 17] | Plant response rating, Foxtail, Giant ([13]; 31 g ai/ha) | Plant response rating, Barnyardgrass [16, 17]
30: Plant response rating, Galium ([1]; 31 g ai/ha) | Plant response rating, Ragweed [5, 17] | Plant response rating, Kochia ([9]; 125 g ai/ha) | Plant response rating, Barnyardgrass ([16]; 31 g ai/ha)
20: Plant response rating, Foxtail, Giant ([7]; 31 g ai/ha) | Plant response rating, Pigweed ([10]; 31 g ai/ha) | Plant response rating, Corn [14, 17] | Plant response rating, Kochia [15, 17]
90: Plant response rating, Foxtail, Giant ([13]; 125 g ai/ha)
50: Plant response rating, Galium [1, 17] | Plant response rating, Pigweed [8, 17]
0: Plant response rating, Wheat ([2]; 31 g ai/ha) | Plant response rating, Wheat [2, 17] | Plant response rating, Ragweed ([3]; 31 g ai/ha) | Plant response rating, Ragweed ([3]; 125 g ai/ha) | Plant response rating, Ryegrass, Italian ([4]; 31 g ai/ha) | Plant response rating, Ryegrass, Italian ([4]; 125 g ai/ha) | Plant response rating, Ragweed ([5]; 31 g ai/ha) | Plant response rating, Barnyardgrass ([6]; 31 g ai/ha) | Plant response rating, Pigweed ([8]; 31 g ai/ha) | Plant response rating, Kochia ([9]; 31 g ai/ha) | Plant response rating, Ryegrass, Italian ([11]; 31 g ai/ha) | Plant response rating, Ryegrass, Italian [11, 17] | Plant response rating, Blackgrass ([12]; 31 g ai/ha) | Plant response rating, Blackgrass [12, 17] | Plant response rating, Corn ([14]; 31 g ai/ha) | Plant response rating, Kochia ([15]; 31 g ai/ha)
80: Plant response rating, Pigweed ([10]; 125 g ai/ha)

CN1CC(c2cccc(Oc3ncc(F)cc3F)c2)C(C(=O)Nc2cccc(F)c2F)C1=O (single isomer, unassigned) [Compound 73]
30: Plant response rating, Ragweed [5, 17]
0: Plant response rating, Ragweed ([3]; 31 g ai/ha) | Plant response rating, Ragweed ([3]; 125 g ai/ha) | Plant response rating, Ryegrass, Italian ([4]; 31 g ai/ha) | Plant response rating, Ragweed ([5]; 31 g ai/ha) | Plant response rating, Kochia ([9]; 31 g ai/ha) | Plant response rating, Pigweed ([10]; 31 g ai/ha) | Plant response rating, Pigweed ([10]; 125 g ai/ha) | Plant response rating, Ryegrass, Italian ([11]; 31 g ai/ha) | Plant response rating, Blackgrass ([12]; 31 g ai/ha) | Plant response rating, Kochia ([15]; 31 g ai/ha)
40: Plant response rating, Ryegrass, Italian ([4]; 125 g ai/ha) | Plant response rating, Ryegrass, Italian [11, 17] | Plant response rating, Blackgrass [12, 17]
20: Plant response rating, Wheat ([2]; 31 g ai/ha) | Plant response rating, Wheat [2, 17] | Plant response rating, Kochia ([9]; 125 g ai/ha) | Plant response rating, Corn ([14]; 31 g ai/ha) | Plant response rating, Corn [14, 17] | Plant response rating, Kochia [15, 17]
50: Plant response rating, Galium ([1]; 31 g ai/ha) | Plant response rating, Barnyardgrass ([6]; 31 g ai/ha) | Plant response rating, Pigweed ([8]; 31 g ai/ha)
70: Plant response rating, Barnyardgrass [16, 17]
60: Plant response rating, Galium [1, 17] | Plant response rating, Foxtail, Giant ([7]; 31 g ai/ha) | Plant response rating, Pigweed [8, 17] | Plant response rating, Barnyardgrass ([16]; 31 g ai/ha)
90: Plant response rating, Barnyardgrass ([6]; 125 g ai/ha) | Plant response rating, Foxtail, Giant [7, 17] | Plant response rating, Foxtail, Giant ([13]; 125 g ai/ha)
80: Plant response rating, Foxtail, Giant ([13]; 31 g ai/ha)
